The text below walks through data of publication PMC11420244, “Evaluation of the effect of modafinil on the pharmacokinetics of encorafenib and binimetinib in patients with BRAF V600-mutant advanced solid tumors” (Cancer Chemotherapy and Pharmacology, 2024).

Series [1] is described as follows: Phase 1 clinical DDI study: steady-state plasma PK (noncompartmental analysis) with and without modafinil. Format: in vivo, Human. The conditions noted are these: for MRAUC last (metabolite ratio), Median (range) / MRC max (metabolite ratio), Median (range): metabolite to parent; for AUClast, Median (range) / Cmax, Median (range) / T1/2, Median (range) / Tmax, Median (range): plasma, patients. As for the experimental part: Encorafenib 450 mg QD and binimetinib 45 mg BID were administered starting on Day 1. Patients then received continuous treatment of 400 mg QD modafinil on Day 15 through Day 21. Blood samples for measurement of plasma concentrations of encorafenib (and its metabolite, LHY746) and binimetinib (and its active metabolite, AR00426032), were collected at 0, 1, 2, 3, 4, 6 and 8 h post dose on Day 14 and Day 21.
Human PK plasma samples were analyzed for quantitation of all PK analytes at PPD (Middleton, Wisconsin, US) using validated, sensitive, and specific HPLC/MS/MS methods in compliance with laboratory SOPs.
PK parameters including, but not limited to, Cmax and AUClast were calculated for each participant using noncompartmental analysis (NCA) methods using the WinNonlin software package (Phoenix WinNonlin Professional, version 8.0 Pharsight Corporation, Mountain View, California) for PK analytes including encorafenib and its metabolite LHY746, and binimetinib and its metabolite AR00426032.
All patients who received at least one dose of any study drug were included in the Safety Set population. The Evaluable PK Set included all patients with sufficient concentration data to calculate at least one PK parameter for encorafenib and binimetinib on Days 14 and 21. Patients who discontinued, missed 3 or more consecutive doses of encorafenib prior to completion of the last PK sampling on Day 14, or required a dose reduction of encorafenib prior to completion of the last PK sampling on Day 14 were excluded from the Evaluable PK set. In addition, patients who missed any dose of study drugs on any of the PK days, or who vomited within 4 h after dosing on any of the PK days were excluded from Evaluable PK set.
An analysis of variance (ANOVA) was performed on the natural log (ln)-transformed Cmax and AUClast of encorafenib, LHY746, binimetinib, and AR00426032. The least squares means (LSM) geometric mean ratio (GMR) and associated 90% confidence interval (CI) for each PK parameter were calculated using the exponentiation of the difference between treatment LSM from the analyses on the ln-transformed parameters and expressed as a percentage of Day 21 relative to Day 14.

Series [2] in a line: Reported DDI studies of CYP3A substrates with strong, moderate or weak CYP3A inducers. Format: in vivo. The source says: Another strategy to predict the effect strong induction may have on encorafenib PK, or the PK of other CYP3A substrates, but with fewer assumptions was proposed in a review by Molenaar-Kuijsten et al.. Based on a review of 12 approved oral anticancer drugs primarily metabolized by CYP3A, if no clinical DDI data were available for moderate inducers, an effect of 50% compared to strong inducers could be assumed. After expanding the dataset of Molenaar-Kuijsten to include 3 additional approved oral anti-cancer drugs (fuzuloparib, pirtobrutinib, and fedratinib) metabolized by CYP3A, we applied this approach in the opposite direction (lack of clinical data for the effect of strong CYP3A4 inducers) given available clinical DDI data generated in this study for encorafenib (Table 3). The median ratio of the decrease for a strong inducer to a moderate inducer was 1.56 and ranged from 1.15 for cobimetinib to 2.43 for palbociclib. […] The upper end of this range is consistent with PBPK simulations conducted prior to the study, indicating encorafenib exposures would decrease by ∼ 58% in combination with rifampin (based on a model with some simplifying assumptions) and would also be consistent with the recommendations based on in vitro data to avoid strong inducers in combination with encorafenib. This approach to managing potential coadminsitration of encorafenib with a strong inducer of CYP3A is the most conservative due to lack of more precise extrapolation methods and clincial data.

The conditions of series [3]: cited from earlier work; for Effect of Strong CYP3A Inducer on AUC (decrease): Rifampin.
For series [4] the following is noted: PBPK modeling; cited from earlier work.
The conditions of series [5]: cited from earlier work.
Where [6] appears, read: Day 14, without modafinil, steady state.
Where [7] appears, read: Day 21 (with modafinil) relative to Day 14 (without).
The mark [8] stands for this setting: Day 21, with modafinil 400 mg QD.
[9] abbreviates: Day 21, with modafinil 400 mg QD, steady state.

Where two headings read alike, the source gives them in different places.

For the compound `O=C(NOCCO)c1cc2[nH]cnc2c(F)c1Nc1ccc(Br)cc1F` [AR00426032], in series [1] (Day 14, without modafinil), the “MRAUC last (metabolite ratio), Median (range)” value is recorded as 0.0482 (0.0182–0.138) and the “MRC max (metabolite ratio), Median (range)” value is on record as 0.0367 (0.0165–0.0926). Moreover, in series [1] (setting [6]), the “AUClast, Median (range)” value is 127 (36.1–226) ng*hr/mL; the “Cmax, Median (range)” value is on record as 27.5 (8.23–53.4) ng/mL; the “T1/2, Median (range)” value was 5.44 (2.57–8.86) hr; the “Tmax, Median (range)” value is recorded as 2.00 (0.88-3.00) hr. In series [1] (setting [7]), the “AUClast GMR (geometric mean ratio)” value was 0.977, the “Cmax GMR (geometric mean ratio)” value is reported as 0.954, the “MRAUClast GMR” value is 1.02 and the “MRCmax GMR” value was 0.950. Further, in series [1] (setting [8]), the “MRAUC last (metabolite ratio), Median (range)” value was 0.0440 (0.0275–0.123) and the “MRC max (metabolite ratio), Median (range)” value is 0.0335 (0.0192–0.0850). Also, in series [1] (setting [9]), the “AUClast, Median (range)” value is listed as 111 (70.9–197) ng*hr/mL; the “Cmax, Median (range)” value is reported as 23.8 (13.7–40.0) ng/mL; the “T1/2, Median (range)” value was 5.75 (2.88–18.1) hr; the “Tmax, Median (range)” value was 2.00 (0.95–2.23) hr. Moreover, the “Time at which mean plasma concentrations typically reach peak levels, postdose” value in series [1] (Days 14 and 21, steady state) was found to be 2 h.
For `O=C(c1cc(Cc2n[nH]c(=O)c3ccccc23)ccc1F)N1CCN(C(=O)C2CC2)CC1` [Olaparib], in series [2] (ratio of AUC decreases), the “Strong CYP3A Inducer Effect /Moderate CYP3A Inducer Effect” value turned out to be 1.38. Also, the “Effect of Moderate CYP3A Inducer on AUC (decrease)” value in series [3] (Efavirenz) was “↓ 57.3%”.
With `CC(=O)c1c(C)c2cnc(Nc3ccc(N4CCNCC4)cn3)nc2n(C2CCCC2)c1=O` [Palbociclib], the “Strong CYP3A Inducer Effect /Moderate CYP3A Inducer Effect” value in series [2] (ratio of AUC decreases) is reported as 2.43. The “Effect of Moderate CYP3A Inducer on AUC (decrease)” value in series [3] (Efavirenz) is on record as 38%; in series [3] (Modafinil) it was 32%. The “Effect of Strong CYP3A Inducer on AUC (decrease)” value in series [3] is “↓ 85.2%”. In addition, the “Effect of Moderate CYP3A Inducer on AUC (decrease), mean” value in series [3] (mean of modafinil and efavirenz) is on record as “↓ 35% (mean)”.
In the case of `O=C(c1ccc(F)c(F)c1Nc1ccc(I)cc1F)N1CC(O)([C@@H]2CCCCN2)C1` [Cobimetinib], the “Strong CYP3A Inducer Effect /Moderate CYP3A Inducer Effect” value in series [2] (ratio of AUC decreases) is 1.15. Further, in series [3] (Efavirenz), the “Effect of Moderate CYP3A Inducer on AUC (decrease)” value is “↓ 72%”. Also, in series [3], the “Effect of Strong CYP3A Inducer on AUC (decrease)” value is on record as “↓ 83%”. In addition, in series [3] (in vivo), the “Reduction in exposure in combination with weak CYP3A inducer vemurafenib” value is listed as 13%. Moreover, in series [4], the “Predicted reduction in AUC with moderate CYP3A inducer” value is reported as 72% and the “Predicted reduction in AUC with strong CYP3A inducer” value is recorded as 83%.
As to `O=C(c1cc(Cc2n[nH]c(=O)c3ccccc23)ccc1F)N1CCn2nc(C(F)(F)F)nc2C1` [Fuzuloparib], in series [2] (ratio of AUC decreases), the “Strong CYP3A Inducer Effect /Moderate CYP3A Inducer Effect” value is reported as 1.45. The “Effect of Moderate CYP3A Inducer on AUC (decrease)” value in series [3] (Efavirenz) was “↓ 22%”. Moreover, the “Effect of Strong CYP3A Inducer on AUC (decrease)” value in series [3] is reported as “↓ 32%”.
Consider `NC(=O)C[S+]([O-])C(c1ccccc1)c1ccccc1` (stereo not shown) [modafinil], for which, in series [5], the “Patients with headache (only observed AE above this frequency)” value is over 15%.
Take `Cc1c(C(=O)Nc2ccc(N3C[C@@H](C)O[C@@H](C)C3)nc2)cccc1-c1ccc(OC(F)(F)F)cc1` [Sonidegib]: in series [2] (ratio of AUC decreases), the “Strong CYP3A Inducer Effect /Moderate CYP3A Inducer Effect” value is on record as 1.56. The “Effect of Moderate CYP3A Inducer on AUC (decrease)” value in series [3] (Efavirenz) is “↓ 49%”. For the same compound, the “Effect of Strong CYP3A Inducer on AUC (decrease)” value in series [3] was “↓ 76.6%”.
Take `Cc1cc(Nc2ncc(Cl)c(Nc3ccccc3S(=O)(=O)C(C)C)n2)c(OC(C)C)cc1C1CCNCC1` [Ceritinib]: in series [2] (ratio of AUC decreases), the “Strong CYP3A Inducer Effect /Moderate CYP3A Inducer Effect” value amounted to 1.59. Moreover, in series [3] (Efavirenz), the “Effect of Moderate CYP3A Inducer on AUC (decrease)” value is reported as “↓ 43%”. In series [3], the “Effect of Strong CYP3A Inducer on AUC (decrease)” value is reported as “↓ 68.5%”.
On to `C=CC(=O)Nc1cc(Nc2nccc(-c3cn(C)c4ccccc34)n2)c(OC)cc1N(C)CCN(C)C` [Osimertinib], for which the “Strong CYP3A Inducer Effect /Moderate CYP3A Inducer Effect” value in series [2] (human, in vivo) is given as 1.87. In series [3] (Efavirenz), the “Effect of Moderate CYP3A Inducer on AUC (decrease)” value was “↓ 42%”. Further, the entries for the “Effect of Strong CYP3A Inducer on AUC (decrease)” value in series [3] and in series [3] (listed as osimertinib) were “↓ 78.5%” and 87%, respectively.
Consider `Cc1nnc2n1-c1ccc(Cl)cc1C(c1ccccc1Cl)=NC2` [triazolam], for which, in series [3] (modafinil 200 mg for 7 days followed by 400 mg for 21 days), the “Decrease on mean AUCinf with modafinil” value is 59%.
As for `O=C1Nc2ccc(Cl)cc2[C@@](C#CC2CC2)(C(F)(F)F)O1` [efavirenz], the “Patients with neuropsychiatric effects” value in series [5] is “up to 70%”.
On to `Cc1cnc(Nc2ccc(OCCN3CCCC3)cc2)nc1Nc1cccc(S(=O)(=O)NC(C)(C)C)c1` [Fedratinib], for which the “Strong CYP3A Inducer Effect /Moderate CYP3A Inducer Effect” value in series [2] (ratio of AUC decreases) is on record as 1.72. Moreover, the “Effect of Moderate CYP3A Inducer on AUC (decrease)” value in series [3] (Efavirenz) is listed as “↓ 47%”. The “Effect of Strong CYP3A Inducer on AUC (decrease)” value in series [3] is recorded as “↓ 81%”.
Turning to `COc1ccc(F)cc1C(=O)NCc1ccc(-c2nn([C@@H](C)C(F)(F)F)c(N)c2C(N)=O)cc1` [Pirtobrutinib], the “Strong CYP3A Inducer Effect /Moderate CYP3A Inducer Effect” value in series [2] (ratio of AUC decreases) is on record as 1.45. Also, the “Effect of Moderate CYP3A Inducer on AUC (decrease)” value in series [3] (Efavirenz) is on record as “↓ 49%”. Besides, the “Effect of Strong CYP3A Inducer on AUC (decrease)” value in series [3] was “↓ 71%”.
